SMILES strings stand for the structures.

Experimental findings from patent US4550172A, “Novel heterocyclic compounds as antiallergic agents” (American Home Products Corporation, priority 1984, dated 1985) are described below.

The assay concerns LTD4 induced bronchoconstriction. Briefly: inhibition of LTD4-induced bronchospasm in guinea pigs (SRS-A antagonist properties). It counts as in vivo, guinea pigs (male Hartley strain). The note with it: LTD4 for induction, compound 50 mg/kg intraduodenal, 10 minutes before induction of bronchospasm. As for the experimental part: The assay of this Example measures the in vivo ability of the components of the invention to inhibit the bronchospasm induced in guinea pigs by the exogenously administered leukotrienes C4 and/or D4. This assay is essentially a measure of the SRS-A antagonist properties of the compounds tested.
This assay is carried out as follows:
Male Hartley strain guinea pigs (350-600 g) are anesthetized with pentobarbital sodium (50 mg/kg, i.p.). The jugular vein is cannulated for injection of drugs and the carotid artery for monitoring blood pressure. The trachea is cannulated for artificial ventilation by a miniature Starling pump and for indirect measurement of respiratory volume changes as described infra. Additional pentobarbital sodium (15 mg/kg, i.v.) is administered to arrest spontaneous respiration. Submaximal bronchoconstrictor responses are established in control animals by varying the dose-levels of leukotriene. Intravenous dose-levels for LTC4 range from 1 to 2 μg/kg and for LTD4 the range is from 0.3 to 1 μg/kg. The aerosol bronchoprovocation dose for LTC4 is generated from 1.6 μM solution and for LTD4 from a 2.0 μM solution.
Test drugs are administered either intravenously, intraduodenally, by aerosol or orally at 1 or 10 minutes before induction of bronchospasm by administration of either LTC4 or LTD4 at the predetermined dose-levels. Aerosols of soluble drugs or leukotrienes are produced in-line for 10 seconds only by actuation of an ultrasonic nebulizer (Monaghan). Aerosolized drug dosage is expressed in terms of solution concentration and by a fixed aerosol exposure time (approximately 10 seconds). Control animals receive saline in place of drug.
Respiratory volume changes are determined by a calibrated piston whose travel is recorded, via a linear transducer, on a Beckman Dynograph recorder. Maximal bronchoconstrictor volume is determined by clamping off the trachea at the end of the experiment. Overflow volumes at 1, 3 and 5 minutes are obtained from the recorded charts.
The overflow volume at 1, 3 and 5 minutes is expressed as a percentage of maximal bronchoconstriction. Combined group values are used from each of these time intervals to determine the inhibitory effect of drugs. [formula] Students t-test for unpaired data is used to determine statistical significance. Dose response curves are generated and ED50 doses are interpolated from the regression lines.
Results for a compound of the invention in this assay, using LTD4 for induction of bronchospasm, is given below: […]

In the case of `O=C1CCC(=O)N1c1cccc(OCc2nc3ccccc3s2)c1` [Example 1, N-[3-[(2-benzothiazolyl)methoxy]phenyl]pyrrolidin-2,5-dione], the “% Inhibition Overflow Volume at 3 min.” value is given as 63% and the “% Inhibition Overflow Volume at 5 min.” value is listed as 68%.
Consider `Cn1c(COc2cccc(N3C(=O)CCC3=O)c2)nc2ccccc21` [Example 2, N-[3-[(1-methyl-2-benzimidazolyl)methoxy]phenyl]pyrrpolidin-2,5-dione], for which the “% Inhibition Overflow Volume at 3 min.” value turned out to be 75% and the “% Inhibition Overflow Volume at 5 min.” value was determined as 78%.
